Laboratory results: PubChem BioAssay AID190 (DTP/NCI, 2004)
“And” between values parts separate entries of the source, which are not always exact repeats. Identical values can stand only once. Toxic doses and inconclusive results are not listed. Numbered stars: 1 amine (or outer) side, 2 acyl side, 3 side chain; on linkers, the order of the positions; unused ones are H or OH. Bridge positions count the residues as written; N and C are the ends. Square brackets hold non-standard residues; d marks the D form. Peptide text beside a SMILES is read from it. I, II: the chains in the order shown. Actinocin(9to1) = Cc1c2oc3c(C)ccc(C(=O)[*:1])c3nc-2c(C(=O)[*:2])c(N)c1=O; aThr = C[C@H](O)[C@H](N)C(=O)O; NMeV = CN[C@H](C(=O)O)C(C)C; Sar = CNCC(=O)O

System: AKR/Lw mice, AKR lymphoma ip, median survival T/C
Assay: NCI In Vivo Anticancer Drug Screen. Data for tumor model Lymphoma AKR (Transplanted) (intraperitoneal) in AKR/Lw mice
Conditions: endpoint: median survival time, higher = longer survival
Description: The antitumor activity of compounds was measured in mice bearing transplantable tumors. Survival or tumor size were measured and the results are expressed as the measurement made in the treated group (T) divided by the measurement made in the vehicle treated control group (C). The tumor model used in this assay is Lymphoma AKR (Transplanted) (intraperitoneal) in AKR/Lw mice

[1] = dose: 100.0 mg/kg/injection, schedule: Q01DX001 (ip), vehicle: Klucel (hydroxypropylcellulose) (HPC)
[2] = dose: 100.0 mg/kg/injection, schedule: Q01DX001 (ip), vehicle: saline
[3] = dose: 200.0 mg/kg/injection, schedule: Q01DX001 (ip), vehicle: Klucel (hydroxypropylcellulose) (HPC)
[4] = dose: 200.0 mg/kg/injection, schedule: Q01DX001 (ip), vehicle: saline
[5] = dose: 600.0 mg/kg/injection, schedule: Q01DX001 (ip), vehicle: Klucel (hydroxypropylcellulose) (HPC)

CN(C)/N=N/c1nc[nH]c1C(N)=O
T/C (dose: 12.5 mg/kg/injection, schedule: Q01DX009 (ip), vehicle: saline): 120 % of control
T/C (dose: 25.0 mg/kg/injection, schedule: Q01DX009 (ip), vehicle: saline with Tween-80): 111 % of control
T/C (dose: 25.0 mg/kg/injection, schedule: Q01DX009 (ip), vehicle: saline): 106 % of control and 123 % of control
T/C (dose: 25.0 mg/kg/injection, schedule: Q04DX003 (ip), vehicle: Klucel (hydroxypropylcellulose) (HPC)): 102 % of control
T/C (dose: 37.5 mg/kg/injection, schedule: Q04DX003 (ip), vehicle: Klucel (hydroxypropylcellulose) (HPC)): 116 % of control
T/C (dose: 50.0 mg/kg/injection, schedule: Q01DX001 (ip), vehicle: Klucel (hydroxypropylcellulose) (HPC)): 102 % of control
T/C (dose: 50.0 mg/kg/injection, schedule: Q01DX005 (ip), vehicle: water): 116 % of control
T/C (dose: 50.0 mg/kg/injection, schedule: Q01DX009 (ip), vehicle: saline with Tween-80): 111 % of control
T/C (dose: 50.0 mg/kg/injection, schedule: Q04DX003 (ip), vehicle: Klucel (hydroxypropylcellulose) (HPC)): 105 % of control
T/C (dose: 75.0 mg/kg/injection, schedule: Q04DX003 (ip), vehicle: Klucel (hydroxypropylcellulose) (HPC)): 102 % of control
T/C (dose: 90.0 mg/kg/injection, schedule: Q01DX005 (ip), vehicle: Klucel (hydroxypropylcellulose) (HPC)): 158 % of control
T/C [1]: 90 % of control and 113 % of control
T/C [2]: 105 % of control and 107 % of control
T/C (dose: 100.0 mg/kg/injection, schedule: Q01DX005 (ip), vehicle: water): 120 % of control
T/C (dose: 100.0 mg/kg/injection, schedule: Q01DX009 (ip), vehicle: Klucel (hydroxypropylcellulose) (HPC)): 100 % of control and 123 % of control
T/C (dose: 100.0 mg/kg/injection, schedule: Q01DX009 (ip), vehicle: saline with Tween-80): 111 % of control
T/C (dose: 100.0 mg/kg/injection, schedule: Q04DX003 (ip), vehicle: Klucel (hydroxypropylcellulose) (HPC)): 87 % of control
T/C (dose: 135.0 mg/kg/injection, schedule: Q01DX005 (ip), vehicle: Klucel (hydroxypropylcellulose) (HPC)): 186 % of control and 188 % of control
T/C (dose: 150.0 mg/kg/injection, schedule: Q01DX009 (ip), vehicle: saline): 111 % of control
T/C [3]: 123 % of control
T/C [4]: 107 % of control (2×) and 113 % of control
T/C (dose: 200.0 mg/kg/injection, schedule: Q01DX005 (ip), vehicle: Klucel (hydroxypropylcellulose) (HPC)): 97 % of control
T/C (dose: 200.0 mg/kg/injection, schedule: Q01DX005 (ip), vehicle: water): 114 % of control
T/C (dose: 200.0 mg/kg/injection, schedule: Q01DX009 (ip), vehicle: Klucel (hydroxypropylcellulose) (HPC)): 100 % of control and 123 % of control
T/C (dose: 200.0 mg/kg/injection, schedule: Q01DX009 (ip), vehicle: saline with Tween-80): 117 % of control
T/C (dose: 200.0 mg/kg/injection, schedule: Q04DX003 (ip), vehicle: Klucel (hydroxypropylcellulose) (HPC)): 100 % of control and 121 % of control and 122 % of control
T/C (dose: 250.0 mg/kg/injection, schedule: Q04DX003 (ip), vehicle: Klucel (hydroxypropylcellulose) (HPC)): 111 % of control
T/C (dose: 300.0 mg/kg/injection, schedule: Q01DX001 (ip), vehicle: Klucel (hydroxypropylcellulose) (HPC)): 120 % of control and 123 % of control
T/C (dose: 350.0 mg/kg/injection, schedule: Q04DX003 (ip), vehicle: Klucel (hydroxypropylcellulose) (HPC)): 163 % of control
T/C (dose: 500.0 mg/kg/injection, schedule: Q01DX001 (ip), vehicle: Klucel (hydroxypropylcellulose) (HPC)): 107 % of control and 111 % of control
T/C [5]: 110 % of control and 111 % of control
T/C (dose: 600.0 mg/kg/injection, schedule: Q01DX009 (ip), vehicle: Klucel (hydroxypropylcellulose) (HPC)): 102 % of control

Cc1c2oc3c(C)ccc(C(=O)N[C@@H]4C(=O)N[C@H](C(C)C)C(=O)N5CCC[C@H]5C(=O)N(C)CC(=O)N(C)[C@@H](C(C)C)C(=O)O[C@H]4C)c3nc-2c(C(=O)N[C@@H]2C(=O)N[C@H](C(C)C)C(=O)N3CCC[C@H]3C(=O)N(C)CC(=O)N(C)[C@@H](C(C)C)C(=O)O[C@H]2C)c(N)c1=O (I: [aThr][dV]P[Sar][NMeV] / II: [aThr][dV]P[Sar][NMeV]; ester I:1-I:C, II:1-II:C; linker I:N-II:N via Actinocin(9to1))
T/C (dose: 0.05 mg/kg/injection, schedule: Q01DX001 (ip), vehicle: saline): 110 % of control
T/C (dose: 0.1 mg/kg/injection, schedule: Q01DX001 (ip), vehicle: saline): 117 % of control
T/C (dose: 0.2 mg/kg/injection, schedule: Q01DX001 (ip), vehicle: saline): 112 % of control
T/C (dose: 1.0 micrograms/kg/injection, schedule: Q01DX015 (ip), vehicle: saline): 94 % of control
T/C (dose: 2.0 micrograms/kg/injection, schedule: Q01DX015 (ip), vehicle: saline): 108 % of control
T/C (dose: 4.0 micrograms/kg/injection, schedule: Q01DX015 (ip), vehicle: saline): 105 % of control
T/C (dose: 5.0 micrograms/kg/injection, schedule: Q01DX010 (ip), vehicle: saline): 109 % of control
T/C (dose: 6.0 micrograms/kg/injection, schedule: Q01DX015 (ip), vehicle: saline): 105 % of control
T/C (dose: 9.0 micrograms/kg/injection, schedule: Q01DX015 (ip), vehicle: saline): 111 % of control
T/C (dose: 10.0 micrograms/kg/injection, schedule: Q01DX010 (ip), vehicle: saline): 119 % of control
T/C (dose: 13.0 micrograms/kg/injection, schedule: Q01DX015 (ip), vehicle: saline): 94 % of control
T/C (dose: 20.0 micrograms/kg/injection, schedule: Q01DX015 (ip), vehicle: saline): 119 % of control

O=S1(=O)CC(O)C(Cl)C1 (centres undefined)
T/C [2]: 91 % of control
T/C [4]: 91 % of control
T/C (dose: 400.0 mg/kg/injection, schedule: Q01DX001 (ip), vehicle: saline): 95 % of control

CC(=O)c1cccc(N)c1
T/C [1]: 93 % of control and 105 % of control
T/C [3]: 91 % of control
T/C (dose: 400.0 mg/kg/injection, schedule: Q01DX001 (ip), vehicle: Klucel (hydroxypropylcellulose) (HPC)): 94 % of control and 122 % of control
T/C [5]: 94 % of control

CC(=O)C1CCC2C3CCC4CC(O)CCC4(C)C3CCC12C#N (centres undefined)
T/C (dose: 100.0 mg/kg/injection, schedule: Q01DX001 (sc), vehicle: steriod suspending solution): 104 % of control
T/C (dose: 200.0 mg/kg/injection, schedule: Q01DX001 (sc), vehicle: steriod suspending solution): 106 % of control
T/C (dose: 400.0 mg/kg/injection, schedule: Q01DX001 (sc), vehicle: steriod suspending solution): 95 % of control
